Measured values from article PMC11903766, “A structure-based framework for selective inhibitor design and optimization” (Communications Biology, 2025).
Like-named read-outs stand apart in the source and are kept apart here.

What was measured:
[1] = target: T1, PARP1 (Homo sapiens, UniProt P09874); test: biochemical; parameters: PARP1 ELISA on histone-coated plates with NAD+, anti-PAR antibody, HRP chemiluminescence
Method: (§1) S53 Biological Assay Methods PARP1 inhibitory activity assay. The histone coated 384-well plates were prepared by adding 25 µL histone solution to each well and incubating overnight at 4°C. Prepared PBST buffer, blocking buffer, and assay buffer. Washed the histone coated 384-well plate 3 times using PBST buffer solution. It was blocked with 50 µL blocking buffer at room temperature for 1 h. The plate was washed 3 times using PBST buffer. 2000x compounds were prepared in the source plate, and 50nl compound were transferred from the source plate to the 96-well intermediate plate with 19.95ul assay buffer, shaken, and centrifuged at 1000rpm for 1 min. 5 µL DMSO/compound was then transferred to each well. The PARP1 and DNA mixture was incubated for 10 min at 25°C, followed by the addition of 10 µL PARP1 and DNA (except min control), incubated with the compound for 10 min at RT, and 10 μL DNA was added to the minimal control of assay plate. Added 10 µL of 2.5x NAD+ to each well and incubated for 60 min at 25°C. The plate was washed 3 times with PBST buffer and then assayed. Added 20 µL of anti-Poly/Mono-ADP Ribose Rabbit mAb. […] Read chemiluminescence on Envision immediately after adding 25 µL of Femto-ECL Substrate A and Femto-ECL Substrate B (1:1) mix. The IC50 values were calculated by analyzing the concentration-response curves. […]

[2] = target: T2, PARP2 (Homo sapiens, UniProt Q9UGN5); test: biochemical; parameters: PARP2 ELISA on histone-coated plates with biotin-NAD+, streptavidin-HRP chemiluminescence
T2 sequence (Q9UGN5 whole entry): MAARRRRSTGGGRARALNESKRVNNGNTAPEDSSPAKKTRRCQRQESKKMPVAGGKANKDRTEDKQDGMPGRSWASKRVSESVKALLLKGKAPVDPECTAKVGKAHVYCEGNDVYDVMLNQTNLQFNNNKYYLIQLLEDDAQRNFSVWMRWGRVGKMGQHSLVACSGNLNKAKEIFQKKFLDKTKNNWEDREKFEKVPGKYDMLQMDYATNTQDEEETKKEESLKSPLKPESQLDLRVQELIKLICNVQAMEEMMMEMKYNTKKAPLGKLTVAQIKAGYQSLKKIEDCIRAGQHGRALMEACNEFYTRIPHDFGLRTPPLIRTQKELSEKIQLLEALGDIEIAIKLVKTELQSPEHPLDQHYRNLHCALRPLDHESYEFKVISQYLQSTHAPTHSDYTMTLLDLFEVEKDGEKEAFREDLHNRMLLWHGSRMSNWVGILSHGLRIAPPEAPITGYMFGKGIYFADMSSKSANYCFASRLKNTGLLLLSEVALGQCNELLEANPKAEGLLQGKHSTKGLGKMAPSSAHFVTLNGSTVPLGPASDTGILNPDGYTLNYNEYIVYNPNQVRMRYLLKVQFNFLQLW
Method: (§2) S54 PARP2 inhibitory activity assay. The histone coated 384-well plates were prepared by adding 25 µL histone solution to each well and incubating overnight at 4°C. Prepared PBST buffer, blocking buffer, and assay buffer. Washed the histone coated 384-well plate 3 times using PBST buffer solution. It was blocked with 50 µL blocking buffer at room temperature for 1 h. The plate was washed 3 times using PBST buffer. 2000x compounds were prepared in the source plate, and 50nl compound were transferred from the source plate to the 96-well intermediate plate with 19.95ul assay buffer, shaken, and centrifuged at 1000rpm for 1 min. 5 µL DMSO/compound was then transferred to each well. The PARP2 mixture was incubated for 10 min at 25°C, followed by the addition of 10 µL PARP2 (except min control), incubated with the compound for 10 min at RT, and 10 µL assay buffer was added to the minimal control of assay plate. Added 10 µL of 2.5x Biotin-NAD+ to each well and incubated for 90 min at 25°C. The plate was washed 3 times with PBST buffer and then assayed. Added 25 µL of Stre-HRP. Incubated for 1 h at RT and washed the plate 3 times with PBST buffer. Read chemiluminescence on Envision immediately after adding 25 µL of Femto-ECL Substrate A and Femto-ECL Substrate B (1:1) mix. The IC50 values were calculated by analyzing the concentration-response curves.

[3] = target: T1, PARP1; test: biochemical; parameters: PARP1 ELISA on histone-coated plates, NAD+, anti-PAR antibody with HRP, chemiluminescence
Method: S53 Biological Assay Methods PARP1 inhibitory activity assay. The histone coated 384-well plates were prepared by adding 25 µL histone solution to each well and incubating overnight at 4°C. Prepared PBST buffer, blocking buffer, and assay buffer. Washed the histone coated 384-well plate 3 times using PBST buffer solution. It was blocked with 50 µL blocking buffer at room temperature for 1 h. The plate was washed 3 times using PBST buffer. 2000x compounds were prepared in the source plate, and 50nl compound were transferred from the source plate to the 96-well intermediate plate with 19.95ul assay buffer, shaken, and centrifuged at 1000rpm for 1 min. 5 µL DMSO/compound was then transferred to each well. The PARP1 and DNA mixture was incubated for 10 min at 25°C, followed by the addition of 10 µL PARP1 and DNA (except min control), incubated with the compound for 10 min at RT, and 10 μL DNA was added to the minimal control of assay plate. Added 10 µL of 2.5x NAD+ to each well and incubated for 60 min at 25°C. The plate was washed 3 times with PBST buffer and then assayed. Added 20 µL of anti-Poly/Mono-ADP Ribose Rabbit mAb. Incubated for 1.5 h at RT and washed the plate 3 times with PBST buffer. Then added, 20 µL of diluted (1:2000 in Blocking buffer) anti-rabbit IgG, HRP-linked Antibody. Incubated for 1 h at RT and washed the plate 3 times using PBST buffer. Read chemiluminescence on Envision immediately after adding 25 µL of Femto-ECL Substrate A and Femto-ECL Substrate B (1:1) mix. The IC50 values were calculated by analyzing the concentration-response curves. Fit the data to obtain inhibition values using equation (1) Equation (1): inh %=( Max-Signal)/ (Max-Min)*100 Fit the data to obtain IC50 values using equation (2) Equation (2): Y=Bottom + (Top-Bottom)/(1+(IC50/X)[…]) Y is %inhibition and X is compound concentration.

[4] = target: T1, PARP1; parameters: PARP1 ELISA on histone-coated plates, NAD+, anti-PAR antibody with HRP, chemiluminescence; settings: inhibitor
Method: as §1

[5] = target: T2, PARP2; test: biochemical; parameters: PARP2 ELISA on histone-coated plates, biotin-NAD+, streptavidin-HRP, chemiluminescence
Method: as §2

[6] = target: T2, PARP2; parameters: PARP2 ELISA on histone-coated plates, biotin-NAD+, streptavidin-HRP, chemiluminescence; settings: inhibitor
Method: as §2

[7] = target: T1, PARP1; test: ELISA enzyme inhibition assay; format: biochemical; settings: read-out: PARP1 Enzyme / IC50 (nM)^b
[8] = target: T2, PARP2; test: ELISA enzyme inhibition assay; format: biochemical; settings: read-out: PARP2 Enzyme / IC50 (nM)^b

T1 sequence (P09874 2-1014): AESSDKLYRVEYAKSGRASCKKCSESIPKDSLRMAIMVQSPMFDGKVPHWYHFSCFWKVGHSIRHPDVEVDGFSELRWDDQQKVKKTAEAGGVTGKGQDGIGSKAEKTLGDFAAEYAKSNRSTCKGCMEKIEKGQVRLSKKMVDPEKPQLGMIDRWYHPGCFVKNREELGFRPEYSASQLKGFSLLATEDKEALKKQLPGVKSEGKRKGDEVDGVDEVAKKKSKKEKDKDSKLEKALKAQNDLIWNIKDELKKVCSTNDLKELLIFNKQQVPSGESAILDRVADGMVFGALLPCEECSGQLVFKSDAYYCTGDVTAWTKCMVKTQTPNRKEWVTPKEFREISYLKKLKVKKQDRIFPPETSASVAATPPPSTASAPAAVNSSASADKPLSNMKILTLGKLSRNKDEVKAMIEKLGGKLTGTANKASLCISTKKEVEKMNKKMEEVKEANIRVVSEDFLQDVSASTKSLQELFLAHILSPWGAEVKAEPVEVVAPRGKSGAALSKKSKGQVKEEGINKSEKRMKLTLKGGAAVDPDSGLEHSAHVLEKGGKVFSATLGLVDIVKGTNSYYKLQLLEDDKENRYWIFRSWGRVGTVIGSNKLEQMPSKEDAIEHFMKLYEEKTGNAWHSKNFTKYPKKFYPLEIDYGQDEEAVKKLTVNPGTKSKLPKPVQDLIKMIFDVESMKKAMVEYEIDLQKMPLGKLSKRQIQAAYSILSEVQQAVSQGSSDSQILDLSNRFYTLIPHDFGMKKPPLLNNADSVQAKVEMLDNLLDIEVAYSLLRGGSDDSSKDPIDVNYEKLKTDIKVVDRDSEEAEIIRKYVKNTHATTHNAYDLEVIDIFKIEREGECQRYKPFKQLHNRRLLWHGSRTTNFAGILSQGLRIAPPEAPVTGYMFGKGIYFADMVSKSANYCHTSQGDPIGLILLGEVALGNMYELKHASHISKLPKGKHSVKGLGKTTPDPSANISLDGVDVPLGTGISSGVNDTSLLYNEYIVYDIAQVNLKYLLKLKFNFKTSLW

| IC50 [1] | IC50 [2] | inhibition at 0.01 µM [3] | inhibition at 10 µM [3] | IC50 [4] | inhibition at 0.01 µM [5] | IC50 [6] | IC50 [7] | IC50 [8] | SMILES |
| --- | --- | --- | --- | --- | --- | --- | --- | --- | --- |
|  |  | 70.5% | 99.1% |  | 87.6% |  | 6 nM | 2.4 nM | CCNC(=O)Nc1cc(CN2CCN(c3ccc(C(=O)NC)nc3)CC2)c2ccccc2n1 [Y6] |
|  |  | 7.3% | 12.7% | > 10000 nM | -0.8% | > 10000 nM |  |  | O=C(c1ccc(C(F)(F)F)c(=O)[nH]1)N1CCN(c2ccc3cc[nH]c3c2)CC1 [Z5] |

More lines, now with the values behind:

| SMILES | IC50 [1] | IC50 [2] | inhibition at 0.01 µM [3] | inhibition at 10 µM [3] | IC50 [4] | inhibition at 0.01 µM [5] | IC50 [6] | IC50 [7] | IC50 [8] |
| --- | --- | --- | --- | --- | --- | --- | --- | --- | --- |
| CNC(=O)c1ccc(N2CCN(Cc3ccnc(-c4c[nH]c(=O)c(C)c4)n3)CC2)cn1 [R1] | 3370 nM | 255 nM |  |  |  |  |  |  |  |
| CNC(=O)c1ccc(N2CCN(CC#Cc3cccc4cn[nH]c34)CC2)cn1 [Y2] |  |  | -0.1% | 47.4% | 9800 nM | 2.3% | > 10000 nM |  |  |
| CCn1c(=O)[nH]c2sc(CN3CCN(c4ccc(C(=O)NC)nc4)CC3)c(C)c2c1=O [Y4] |  |  | 20.7% | 99% |  | -1.6% |  | 86.5 nM | 741 nM |
| CNC(=O)c1ccc(N2CCN(Cc3ccc4c(c3)[nH]c3ncccc34)CC2)cn1 [Y5] |  |  | 46% | 98.8% |  | 1.4% | > 10000 nM | 12.7 nM |  |
